Assay results from patent publication US20220332839A1, “USE OF PRG4 TO TREAT CANCER” (Lubris LLC, priority 2019, published 2022).
“Also recorded” adds a separate entry of the source.

Experiments:
Format in all cases: cell-based, human
Hep3B = test: 72-hour proliferation assay, Hep3B; settings: only at the highest rhPRG4 concentrations; drug 2.5 μM
Procedure: (§1) Proliferation assay: In 100 μl complete medium, 3,000 cells were seeded in wells of a 96-well plate and left overnight to allow complete attachment. The next day (at time t=0 hours), the medium was removed and replaced with 100 μl of fresh medium in the presence/absence of Sorafenib (2.5 μM), Regorafenib (2.5 μM), rhPRG4 (12.5 to 100 μg/ml). Dimethyl sulfoxide (DMSO) and PBS+0.01% Tween-20 were used as vehicles of Sorafenib/Regorafenib, and rhPRG4, respectively. Cells in triplicate wells for each cell line were fixed at t=0 hours with 4% paraformaldehyde (PFA, pH 7.6, 10 min incubation), then stained with crystal violet (CV) and thoroughly washed to remove the excess staining. After 72 hours, the cells were fixed by adding 100 μl of 4% PFA directly to the medium (2% final PFA concentration, 20 min incubation), and processed for CV staining as previously described. Then, 100 or 200 μl of 1% sodium dodecyl-sulphate were added to the wells and the plates were left under shaking until complete CV release from stained cells. Optical density was at 595 nm wavelength measured using a plate reader.

[1] = tested on: HLE, HLF and PLC/DC/19 cells; test: 72-hour proliferation assay, CD44 positive HCC cells; settings: drug 2.5 μM, rhPRG4 12.5 to 100 μg/ml
Procedure: as §1
Characterization of the primary HCC cells line PLC/DC/19: The primary HCC cell line, PLC/DC/19, was isolated from freshly collected surgically resected HCC specimen following the same isolation procedure to isolate CAFs. […]

Smad2 = test: phospho-Smad2 immunoblotting; settings: 100 pM TGFβ; 100 μg/mL rhPRG4; 12 h
Procedure: Cells were washed with PBS to remove all growth media. Appropriate volume of TNTE lysis buffer (50 mM Tris, 150 mM NaCl, 1 mM EDTA, 0.5% [v/v] Triton-X-100) containing protease and phosphatase inhibitors, was added to the cell monolayer and incubated at 4° C. under vigorous shaking for 20 minutes. Lysates were then collected in microcentrifuge tubes and centrifuged at 13,000 g for 10 minutes at 4° C. 5 μL of the lysate were subjected to protein concentration determination using Bradford-based protein assays (Bio-Rad Laboratories, Canada). Lysates were boiled for 3 minutes at 95° C. in dithiothreitol (DTT)-containing Laemmli sample buffer. For immunoprecipitation analyses, lysates were incubated with appropriate antibodies at 4° C. with gentle rocking for 3 h after which immunocomplexes were incubated with Protein G-conjugated agarose beads (UBPBio, USA) at 4° C. with gentle rocking for 3 h. Finally, the beads were washed with TNTE wash buffer (0.1% [v/v] Triton-X-100) and boiled for 5 minutes at 95° C. in dithiothreitol (DTT) containing Laemmli sample buffer. Immunoprecipitates and input lysates were then resolved by sodium dodecyl sulfate-polyacrylamide electrophoresis (SDS-PAGE) and transferred onto a nitrocellulose membrane (Bio-Rad Laboratories, Canada). […] Densitometric analyses were performed using Quantity One software (Bio-Rad Laboratories, Canada).

lubricin (PRG4) mRNA = test: PRG4 mRNA expression in CAFs and ex vivo HCC specimens; settings: 48 hours; CAFs (p<0.01) and HCC samples (p<0.05)
Procedure: RNA extraction and cDNA synthesis: […] of frozen ex-vivo treated HCC tissues were ground with a mortar-pestle in the presence of liquid nitrogen until a thin powder was obtained. The ground tissues were lysed with 0.5-1 ml of RLT buffer+1% (BME) and then processed according to the manufacturer's recommendations (RNeasy kit, Qiagen). […] The obtained RNA was assayed for quality and concentration using the NanoDrop 2000/2000c (Thermo Fisher Scientific). cDNA was synthetized using the High Capacity cDNA reverse transcription kit (Thermo Fisher Scientific), according to relative datasheet.
Real time PCR: One ng/μl of cDNA was used in total 20 μl reaction mix in the presence of 500 nM of each forward and reverse primer referred to a specific gene of interest, and 2×SYBR green master mix (Bio-Rad). The reaction was conducted in a CFX96 Touch Real-Time Detection System (Bio-Rad).
CAFs isolation: Immediately after surgical resection, HCC tumoral and peritumoral specimens were minced into 0.5-1 cm pieces and left in MACS Tissue Storage Solution (Miltenyi Biotec). The tissues were then further cut into smaller size pieces (1-2 mm), washed three times in Hanks balanced salt solution (HBSS), and then incubated in HBSS in the presence of type IV collagenase (Thermo Fisher Scientific) and 3 mM CaCl2 at 37° C. under gentle rotation for 4 hours. At the end of this step, the dissociation was mechanically facilitated by pipetting up-down the digested tissues with a large size orifice 50 ml pipette. The floating cells were collected and washed three times with HBSS and seeded in normal culture conditions in IMDM+20% FBS. The decanted, partially digested tissue specimens were subjected to a second round of digestion (as previously described). The resulting dissociated cells were washed with HBSS and cultured in IMDM+20% FBS. […] The presence of minimal contaminating non-fibroblastic cells (mostly cancerous hepatocytes, cholangiocytes and macrophages) was evaluated using antibodies to EpCAM, CD45, and CD11b.

Substance	rhPRG4-drug synergistic effect (Hep3B)	effectiveness of Sorafenib or Regorafenib when coupled with rhPRG4 [1]	TGFβ-induced phosphorylation of Smad2 (Smad2)	expression of lubricin mRNA (lubricin (PRG4) mRNA)
rhPRG4: full-length recombinant human PRG4 (lubricin) glycoprotein produced by CHO-M cells; residues 25-1404 of SEQ ID NO:1	present during Hep3B proliferation, even if lower	strongly and synergistically improved their effectiveness	did not appreciably alter TGFβ-induced phosphorylation of Smad2; also recorded: did not reduce TGFβ-induced Smad2 phosphorylation	–
TGFβ: recombinant human mature transforming growth factor beta (R&D systems) [reference compound]	–	–	–	significantly enhanced the expression of lubricin
